The values below are quoted from earlier work in patent publication US20210353673A1, “CD11B + PIEZO-1 + MACROPHAGES AND USES THEREOF” (ALBERT-LUDWIGS-UNIVERSITÄT FREIBURG, priority 2018, published 2021).

This data set relates to endothelial cells. The conditions noted are these: after 1 week, normal angiogenesis induced by VEGF.

Turning to “vascular endothelial growth factor [VEGF]”, the “ECs in Go phase” value is recorded as 93%.
